From ChEMBL document CHEMBL1201862, “PubChem BioAssay data set” (2004)
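Assay format: 96-well plates, 48-hour exposure. Here, GI50 denotes the concentration required for 50% inhibition of growth.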 Activity calls are given as the source filed them. Cut-off read from the data, not from the text of the source: active = GI50 up to about 1.1 µM and inactive = higher.

Legend:
Test in all cases: NCI tumour cell line growth inhibition, 48 h
Malme-3M = test system: Malme-3M
UACC-62 = test system: UACC-62
SF-295 = test system: SF-295
EKVX = test system: EKVX
IGROV-1 = test system: IGROV-1
SW-620 = test system: SW-620
SF-539 = test system: SF-539
KM12 = test system: KM12
HCC 2998 = test system: HCC 2998
M14 = test system: M14
OVCAR-5 = test system: OVCAR-5
SNB-75 = test system: SNB-75
SF-268 = test system: SF-268
NCI-H226 = test system: NCI-H226
RXF 393 = test system: RXF 393
MOLT-4 = test system: MOLT-4
NCI-H522 = test system: NCI-H522

`CC(=O)O[C@H]1CCC2[C@@H]3CCC4C(=O)c5oncc5C[C@]4(C)C3CC[C@@]21C` (some centres undefined) was tested, and the GI50 (Malme-3M) was > 100 µM (inactive), the GI50 (UACC-62) was 60.3 µM (inactive) and the GI50 (SF-295) was 39.5 µM (inactive). The GI50 (EKVX) was 22.4 µM (inactive), the GI50 (IGROV-1) was > 100 µM (inactive) and the GI50 (SW-620) was > 100 µM (inactive). For the same compound, the GI50 (SF-539) was > 10 µM (inactive), the GI50 (KM12) was > 100 µM (inactive) and the GI50 (HCC 2998) was > 100 µM (inactive). For the same compound, the GI50 (M14) was > 100 µM (inactive), the GI50 (OVCAR-5) was > 100 µM (inactive) and the GI50 (SNB-75) was 50.2 µM (inactive). For the same compound, the GI50 (SF-268) was > 100 µM (inactive), the GI50 (NCI-H226) was > 10 µM (inactive) and the GI50 (RXF 393) was > 100 µM (inactive). For the same compound, the GI50 (MOLT-4) was > 100 µM (inactive).
In the case of `CC(=O)OCC1OC(n2c(-c3ccc(N)cc3)cc(-c3ccco3)c(C#N)c2=O)C(OC(C)=O)C(OC(C)=O)C1OC(C)=O` (centres undefined), the GI50 (Malme-3M) is reported as > 50 µM (inactive), the GI50 (NCI-H522) is reported as 8.17 µM (inactive) and the GI50 (UACC-62) is reported as 37.2 µM (inactive). The GI50 (SF-295) was 28 µM (inactive), the GI50 (EKVX) was > 50 µM (inactive) and the GI50 (IGROV-1) was 45 µM (inactive). For the same compound, the GI50 (SW-620) was > 50 µM (inactive), the GI50 (SF-539) was 7.62 µM (inactive) and the GI50 (KM12) was 7.29 µM (inactive). The GI50 (HCC 2998) was > 50 µM (inactive), the GI50 (M14) was > 50 µM (inactive) and the GI50 (OVCAR-5) was > 50 µM (inactive). For the same compound, the GI50 (SNB-75) was > 50 µM (inactive), the GI50 (SF-268) was 11.5 µM (inactive) and the GI50 (RXF 393) was > 50 µM (inactive). For the same compound, the GI50 (MOLT-4) was > 50 µM (inactive).
In the case of `COC1=CC(O)(CC(N)=O)c2ccccc2C1=O` (centres undefined), the GI50 (Malme-3M) is reported as > 100 µM (inactive), the GI50 (NCI-H522) is reported as > 100 µM (inactive) and the GI50 (UACC-62) is reported as > 100 µM (inactive). The GI50 (SF-295) was > 100 µM (inactive), the GI50 (EKVX) was > 100 µM (inactive) and the GI50 (IGROV-1) was > 100 µM (inactive). For the same compound, the GI50 (SW-620) was > 100 µM (inactive), the GI50 (KM12) was > 100 µM (inactive) and the GI50 (HCC 2998) was > 100 µM (inactive). The GI50 (M14) was > 100 µM (inactive), the GI50 (OVCAR-5) was > 100 µM (inactive) and the GI50 (SNB-75) was > 100 µM (inactive). For the same compound, the GI50 (SF-268) was > 100 µM (inactive), the GI50 (NCI-H226) was > 100 µM (inactive) and the GI50 (RXF 393) was > 100 µM (inactive). For the same compound, the GI50 (MOLT-4) was > 100 µM (inactive).
For `O=C1CCCCC1CN1CCCC1` (centres undefined), the GI50 (Malme-3M) was > 10 µM (inactive), the GI50 (NCI-H522) was 0.178 µM (active) and the GI50 (SF-295) was > 100 µM (inactive). For the same compound, the GI50 (EKVX) was > 100 µM (inactive), the GI50 (IGROV-1) was > 100 µM (inactive) and the GI50 (SW-620) was > 100 µM (inactive). For the same compound, the GI50 (KM12) was > 100 µM (inactive), the GI50 (HCC 2998) was > 100 µM (inactive) and the GI50 (M14) was > 100 µM (inactive). The GI50 (OVCAR-5) was > 100 µM (inactive), the GI50 (SNB-75) was > 100 µM (inactive) and the GI50 (SF-268) was > 100 µM (inactive). The GI50 (NCI-H226) was > 100 µM (inactive) and the GI50 (MOLT-4) was > 100 µM (inactive).
With `C=CCNC(=O)ON1C(=O)CCC1=O` the GI50 (Malme-3M) was > 100 µM (inactive), the GI50 (NCI-H522) was 31.8 µM (inactive) and the GI50 (UACC-62) was > 100 µM (inactive). The GI50 (SF-295) was > 100 µM (inactive), the GI50 (EKVX) was > 100 µM (inactive) and the GI50 (IGROV-1) was > 100 µM (inactive). For the same compound, the GI50 (SW-620) was > 100 µM (inactive), the GI50 (SF-539) was > 100 µM (inactive) and the GI50 (KM12) was > 100 µM (inactive). For the same compound, the GI50 (HCC 2998) was > 100 µM (inactive), the GI50 (M14) was > 100 µM (inactive) and the GI50 (OVCAR-5) was > 100 µM (inactive). For the same compound, the GI50 (SNB-75) was > 100 µM (inactive), the GI50 (SF-268) was > 100 µM (inactive) and the GI50 (RXF 393) was > 100 µM (inactive). For the same compound, the GI50 (MOLT-4) was > 100 µM (inactive).
`COC(=O)C1=C(SC)SC2(C(=O)OC)C3C=C(C)C4C(N13)C42C(=O)OC` (centres undefined) was tested, and the GI50 (Malme-3M) was > 100 µM (inactive), the GI50 (NCI-H522) was > 100 µM (inactive) and the GI50 (UACC-62) was > 100 µM (inactive). The GI50 (SF-295) was > 100 µM (inactive), the GI50 (EKVX) was > 100 µM (inactive) and the GI50 (IGROV-1) was > 100 µM (inactive). For the same compound, the GI50 (SW-620) was > 100 µM (inactive), the GI50 (SF-539) was > 100 µM (inactive) and the GI50 (HCC 2998) was > 100 µM (inactive). For the same compound, the GI50 (M14) was > 100 µM (inactive), the GI50 (OVCAR-5) was > 100 µM (inactive) and the GI50 (SNB-75) was > 100 µM (inactive). The GI50 (SF-268) was > 100 µM (inactive), the GI50 (NCI-H226) was > 100 µM (inactive) and the GI50 (RXF 393) was > 100 µM (inactive). For the same compound, the GI50 (MOLT-4) was > 100 µM (inactive).
With `Nc1ccc(C(=O)NN2C(=O)C(Cl)C2c2ccccc2)cc1` (centres undefined) the GI50 (Malme-3M) was > 100 µM (inactive), the GI50 (NCI-H522) was > 100 µM (inactive) and the GI50 (UACC-62) was > 100 µM (inactive). For the same compound, the GI50 (SF-295) was > 100 µM (inactive), the GI50 (EKVX) was > 100 µM (inactive) and the GI50 (IGROV-1) was > 100 µM (inactive). The GI50 (SW-620) was > 100 µM (inactive), the GI50 (SF-539) was > 100 µM (inactive) and the GI50 (KM12) was > 100 µM (inactive). For the same compound, the GI50 (HCC 2998) was > 100 µM (inactive), the GI50 (M14) was > 100 µM (inactive) and the GI50 (OVCAR-5) was > 100 µM (inactive). The GI50 (SNB-75) was > 100 µM (inactive), the GI50 (SF-268) was > 100 µM (inactive) and the GI50 (NCI-H226) was > 100 µM (inactive). For the same compound, the GI50 (MOLT-4) was > 100 µM (inactive).
With `O=C(Cc1nc2ccccc2o1)C(=O)Nc1ccc(Cl)cc1Cl` the GI50 (Malme-3M) was > 100 µM (inactive), the GI50 (UACC-62) was > 100 µM (inactive) and the GI50 (SF-295) was > 100 µM (inactive). For the same compound, the GI50 (EKVX) was > 100 µM (inactive), the GI50 (IGROV-1) was > 100 µM (inactive) and the GI50 (SW-620) was > 100 µM (inactive). For the same compound, the GI50 (SF-539) was > 100 µM (inactive), the GI50 (HCC 2998) was > 100 µM (inactive) and the GI50 (M14) was > 100 µM (inactive). The GI50 (OVCAR-5) was > 100 µM (inactive), the GI50 (SNB-75) was 49.2 µM (inactive) and the GI50 (SF-268) was > 100 µM (inactive). The GI50 (NCI-H226) was > 100 µM (inactive) and the GI50 (RXF 393) was > 100 µM (inactive).
For `O=C(NCc1ccncc1)C1COc2cc(-c3cc(=O)c4ccccc4o3)ccc2O1` (centres undefined), the GI50 (Malme-3M) was > 100 µM (inactive), the GI50 (NCI-H522) was > 100 µM (inactive) and the GI50 (UACC-62) was > 100 µM (inactive). The GI50 (SF-295) was > 100 µM (inactive), the GI50 (EKVX) was > 100 µM (inactive) and the GI50 (IGROV-1) was > 100 µM (inactive). For the same compound, the GI50 (SW-620) was > 100 µM (inactive), the GI50 (SF-539) was > 100 µM (inactive) and the GI50 (KM12) was > 100 µM (inactive). For the same compound, the GI50 (HCC 2998) was > 100 µM (inactive), the GI50 (M14) was > 100 µM (inactive) and the GI50 (OVCAR-5) was > 100 µM (inactive). For the same compound, the GI50 (SNB-75) was 38.1 µM (inactive), the GI50 (RXF 393) was > 100 µM (inactive) and the GI50 (MOLT-4) was > 100 µM (inactive).
